Measurements published in patent US7473688B2, “Indolobenzazepine HCV NS5B inhibitors” (Bristol-Myers Squibb Company, priority 2005, dated 2009).

molecular target: T1, HCV NS5B (Hepatitis C virus genotype 1b, UniProt Q9WMX2); assay: HCV NS5B RdRp enzyme assay (preincubation protocol); format: biochemical; settings: Table 1, read-out: IC50*
T1 construct: The protein was expressed with an 18 amino acid C-terminal truncation to enhance the solubility; made in house; host or cells: E. coli BL21 (DE3), pET21a
Method: HCV NS5B RdRp cloning, expression, and purification. The cDNA encoding the NS5B protein of HCV, genotype 1b, was cloned into the pET21a expression vector. The protein was expressed with an 18 amino acid C-terminal truncation to enhance the solubility. The E. coli competent cell line BL21 (DE3) was used for expression of the protein. Cultures were grown at 37° C. for ˜4 hours until the cultures reached an optical density of 2.0 at 600 nm. The cultures were cooled to 20° C. and induced with 1 mM IPTG. Fresh ampicillin was added to a final concentration of 50 μg/ml and the cells were grown overnight at 20° C.
Cell pellets (3L) were lysed for purification to yield 15-24 mgs of purified NS5B. The lysis buffer consisted of 20 mM Tris-HCl, pH 7.4, 500 mM NaCl, 0.5% triton X-100, 1 mM DTT, 1 mM EDTA, 20% glycerol, 0.5 mg/ml lysozyme, 10 mM MgCl2, 15 ug/ml deoxyribonuclease I, and Complete TM protease inhibitor tablets (Roche). After addition of the lysis buffer, frozen cell pellets were resuspended using a tissue homogenizer. To reduce the viscosity of the sample, aliquots of the lysate were sonicated on ice using a microtip attached to a Branson sonicator. The sonicated lysate was centrifuged at 100,000×g for 1 hr at 4° C. and filtered through a 0.2 μm filter unit (Corning).
The protein was purified using three sequential chromatography steps: Heparin sepharose CL-6B, polyU sepharose 4B, and Hitrap SP sepharose (Pharmacia). The chromatography buffers were identical to the lysis buffer but contained no lysozyme, deoxyribonuclease I, MgCl2 or protease inhibitor and the NaCl concentration of the buffer was adjusted according to the requirements for charging the protein onto the column. Each column was eluted with a NaCl gradient which varied in length from 5-50 column volumes depending on the column type. After the final chromatography step, the resulting purity of the enzyme is >90% based on SDS-PAGE analysis. The enzyme was aliquoted and stored at −80° C.
Standard HCV NS5B RdRp enzyme assay. HCV RdRp genotype 1b assays were run in a final volume of 60 μl in 96 well plates (Costar 3912). The assay buffer is composed of 20 mM Hepes, pH 7.5, 2.5 mM KCl, 2.5 mM MgCl2, 1 mM DTT, 1.6 U RNAse inhibitor (Promega N2515), 0.1 mg/ml BSA (Promega R3961), and 2% glycerol. All compounds were serially diluted (3-fold) in DMSO and diluted further in water such that the final concentration of DMSO in the assay was 2%. HCV RdRp genotype 1b enzyme was used at a final concentration of 28 nM. A polyA template was used at 6 nM, and a biotinylated oligo-dT12 primer was used at 180 nM final concentration. Template was obtained commercially (Amersham 27-4110). Biotinylated primer was prepared by Sigma Genosys. 3H-UTP was used at 0.6 μCi (0.29 μM total UTP). Reactions were initiated by the addition of enzyme, incubated at 30° C. for 60 min, and stopped by adding […] of 50 mM EDTA containing SPA beads (4 μg/μl, Amersham RPNQ 0007). Plates were read on a Packard Top Count NXT after >1 hr incubation at room temperature.
Modified HCV NS5B RdRp enzyme assay. A modified enzyme assay was performed essentially as described for the standard enzyme assay except for the following: The biotinylated oligo dT12 primer was precaptured on streptavidin-coated SPA beads by mixing primer and beads in assay buffer and incubating at room temperature for one hour. Unbound primer was removed after centrifugation. The primer-bound beads were resuspended in 20 mM Hepes buffer, pH 7.5 and used in the assay at final concentrations of […] primer and 0.67 μg/μl beads. Order of addition in the assay: Enzyme (14 nM) was added to diluted compound followed by the addition of a mixture of template (0.2 nM), 3H-UTP (0.6 μCi, 0.29 μM), and primer-bound beads, to initiate the reaction; concentrations given are final. Reactions were allowed to proceed for 4 hours at 30° C.
IC50 values for compounds were determined using seven different [I]. […]

T1 sequence (Q9WMX2 2420-2992): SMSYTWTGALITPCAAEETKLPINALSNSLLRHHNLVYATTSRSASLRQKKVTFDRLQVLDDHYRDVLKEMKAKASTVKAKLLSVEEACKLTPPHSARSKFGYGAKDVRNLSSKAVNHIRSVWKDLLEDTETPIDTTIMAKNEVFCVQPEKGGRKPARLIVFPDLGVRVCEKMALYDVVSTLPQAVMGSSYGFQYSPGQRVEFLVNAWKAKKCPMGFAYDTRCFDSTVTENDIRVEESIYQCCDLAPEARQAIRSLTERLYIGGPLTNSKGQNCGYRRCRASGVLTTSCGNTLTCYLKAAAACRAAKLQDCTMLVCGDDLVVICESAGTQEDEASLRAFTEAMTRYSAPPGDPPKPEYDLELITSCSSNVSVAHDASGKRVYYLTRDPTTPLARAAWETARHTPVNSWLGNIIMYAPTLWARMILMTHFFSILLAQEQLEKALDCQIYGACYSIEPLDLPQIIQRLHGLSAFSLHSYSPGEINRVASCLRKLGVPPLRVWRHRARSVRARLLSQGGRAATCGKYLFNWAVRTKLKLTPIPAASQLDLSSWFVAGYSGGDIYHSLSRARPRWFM

Structure (SMILES)	IC50 [nM]
C[C@@H]1CN(C(=O)NC2Cc3ccccc3-c3c(C4CCCCC4)c4ccc(C(=O)O)cc4n3C2)C[C@H](C)O1 (stereo partly shown) [drawing 151]	10 to 1000
CN(C)S(=O)(=O)NC(=O)c1ccc2c(C3CCCCC3)c3n(c2c1)CC(C(=O)N1CCC(F)CC1)=Cc1ccccc1-3 [drawing 74]	10 to 1000
CON(C)S(=O)(=O)NC(=O)c1ccc2c(C3CCCCC3)c3n(c2c1)CC(C(=O)N1CCOCC1)=Cc1ccccc1-3 [drawing 90]	10 to 1000

same assay, conditions: Table 1a, read-out: IC50*

Structure (SMILES)	IC50 [nM]
CN(C)C(=O)CNC(=O)c1ccc2c(C3CCCCC3)c3n(c2c1)CC(C(=O)N1CCC(N2CCOCC2)CC1)=Cc1ccccc1-3	10 to 1000
COC(=O)c1ccc2c(C3CCCCC3)c3n(c2c1)CC(NC(=O)NC1CCN(C(=O)C(F)(F)F)CC1)Cc1ccccc1-3 (stereo not shown)	> 1000
CN1CCN(C(=O)C2=Cc3ccccc3-c3c(C4CCCCC4)c4ccc(C(=O)NS(=O)(=O)N(C)C)cc4n3C2)CC1=O	10 to 1000
CNC(=O)CNC(=O)C1=Cc2cc(OC)ccc2-c2c(C3CCCCC3)c3ccc(C(=O)NS(=O)(=O)N(C)C)cc3n2C1	10 to 1000
COc1ccc2c(c1)C=C(C(=O)N1CCN(C(=O)c3ccco3)CC1)Cn1c-2c(C2CCCCC2)c2ccc(C(=O)NS(=O)(=O)N(C)C)cc21	10 to 1000
COCCNC(=O)CN(C)C(=O)C1=Cc2cc(OC)ccc2-c2c(C3CCCCC3)c3ccc(C(=O)NS(=O)(=O)N(C)C)cc3n2C1	10 to 1000
COc1ccc2c(c1)C=C(C(=O)N1CCN(c3nccs3)CC1)Cn1c-2c(C2CCCCC2)c2ccc(C(=O)NS(=O)(=O)N(C)C)cc21	10 to 1000
COc1ccc2c(c1)C=C(C(=O)N1CCS(=O)(=O)CC1)Cn1c-2c(C2CCCCC2)c2ccc(C(=O)NS(=O)(=O)N(C)C)cc21	10 to 1000
COc1ccc2c(c1)C=C(C(=O)N1CCC(Oc3ncccn3)CC1)Cn1c-2c(C2CCCCC2)c2ccc(C(=O)NS(=O)(=O)N(C)C)cc21	10 to 1000
CN(C)C(=O)CN(C)C(=O)C1=Cc2ccccc2-c2c(C3CCCCC3)c3ccc(C(=O)NS(=O)(=O)N(C)C)cc3n2C1	10 to 1000
CCN(CC)C(=O)CN(C)C(=O)C1Cc2cc(OC)ccc2-c2c(C3CCCCC3)c3ccc(C(=O)NS(=O)(=O)N(C)C)cc3n2C1 (stereo not shown)	10 to 1000
COC(=O)c1ccc2c(C3CCCCC3)c3n(c2c1)CC(NC(=O)C1CCOCC1)Cc1cc(OC)ccc1-3 (stereo not shown)	10 to 1000
CN(C)S(=O)(=O)NC(=O)c1ccc2c(C3CCCCC3)c3n(c2c1)CC(NC(=O)C1CCOCC1)Cc1ccccc1-3 (stereo not shown)	10 to 1000
Cc1cnc(CNC(=O)c2ccc3c(C4CCCCC4)c4n(c3c2)CC(C(=O)N2CCC(N3CCOCC3)CC2)=Cc2ccccc2-4)cn1	10 to 1000
COC(=O)c1ccc2c(C3CCCCC3)c3n(c2c1)CC(NC(=O)C1CCCC(OC)C1)Cc1ccccc1-3 (stereo not shown)	> 1000
COc1ccc2c(c1)CC(C(=O)N(C)CC1CCCO1)Cn1c-2c(C2CCCCC2)c2ccc(C(=O)NS(=O)(=O)N(C)C)cc21 (stereo not shown)	10 to 1000
C[C@@H]1CN(C(=O)C2=Cc3ccccc3-c3c(C4CCCCC4)c4ccc(C(=O)NS(=O)(=O)OCC(C)(C)C)cc4n3C2)C[C@H](C)O1	10 to 1000
COc1ccc2c(c1)C=C(C(=O)N(C)CC(=O)O)Cn1c-2c(C2CCCCC2)c2ccc(C(=O)O)cc21	10 to 1000
COc1ccc2c(c1)CC(C(=O)N(C)CC(=O)N(C)C)Cn1c-2c(C2CCCCC2)c2ccc(C(=O)NS(=O)(=O)N(C)C)cc21 (stereo not shown)	10 to 1000
C[C@@H]1CN(C(=O)C2=Cc3c(ccc4c3OCO4)-c3c(C4CCCCC4)c4ccc(C(=O)O)cc4n3C2)C[C@H](C)O1	10 to 1000
COC1CCCC(C(=O)N(C)C2Cc3ccccc3-c3c(C4CCCCC4)c4ccc(C(=O)NS(=O)(=O)N(C)C)cc4n3C2)C1 (stereo not shown)	10 to 1000

Structure (SMILES)	IC50 [nM]
COc1ccc2c(c1)C=C(C(=O)N1CCC[C@@H](OC(C)=O)C1)Cn1c-2c(C2CCCCC2)c2ccc(C(=O)NS(=O)(=O)N(C)C)cc21	10 to 1000
COc1ccc2c(c1)C=C(C(=O)N(C)CC(=O)N1CCOCC1)Cn1c-2c(C2CCCCC2)c2ccc(C(=O)O)cc21	10 to 1000
COc1ccc2c(c1)C[C@@H](C(=O)N1CCC[C@H](OC(C)=O)C1)Cn1c-2c(C2CCCCC2)c2ccc(C(=O)NS(=O)(=O)N(C)C)cc21 [drawing 326]	10 to 1000
COc1ccc2c(c1)C=C(C(=O)N1CCN(C(C)=O)CC1)Cn1c-2c(C2CCCCC2)c2ccc(C(=O)NS(=O)(=O)N(C)C)cc21	10 to 1000
COc1ccc2c(c1)C=C(C(=O)N1CCN(C(=O)CO)CC1)Cn1c-2c(C2CCCCC2)c2ccc(C(=O)NS(=O)(=O)N(C)C)cc21	10 to 1000
COc1ccc2c(c1)C=C(C(=O)N1C[C@@H](C)N(C)[C@@H](C)C1)Cn1c-2c(C2CCCCC2)c2ccc(C(=O)NS(=O)(=O)N(C)C)cc21	10 to 1000
COC(=O)c1ccc2c(C3CCCCC3)c3n(c2c1)CC(NC(=O)C1CCOCC1)Cc1ccccc1-3 (stereo not shown)	> 1000
C[C@@H]1CN(C(=O)C2=Cc3cc(F)ccc3-c3c(C4CCCCC4)c4ccc(C(=O)O)cc4n3C2)C[C@H](C)N1C	10 to 1000
COc1ccc2c(c1)C=C(C(=O)N1CCOC(CN3CCCC3)C1)Cn1c-2c(C2CCCCC2)c2ccc(C(=O)NS(=O)(=O)N(C)C)cc21 (stereo not shown)	10 to 1000
COc1ccc2c(c1)C=C(C(=O)N1CCC(O)(c3cccnc3)CC1)Cn1c-2c(C2CCCCC2)c2ccc(C(=O)NS(=O)(=O)N(C)C)cc21	10 to 1000
COc1ccc2c(c1)C=C(C(=O)N1CCC(C(=O)N(C)C)CC1)Cn1c-2c(C2CCCCC2)c2ccc(C(=O)NS(=O)(=O)N3CCN(C)CC3)cc21	10 to 1000
COc1ccc2c(c1)CC(N(C)C(=O)N1C[C@@H](C)O[C@@H](C)C1)Cn1c-2c(C2CCCCC2)c2ccc(C(=O)NS(=O)(=O)N(C)C)cc21 (stereo partly shown)	10 to 1000
COc1ccc2c(c1)C=C(C(=O)N1CCN(C)C(=O)C1)Cn1c-2c(C2CCCCC2)c2ccc(C(=O)NS(=O)(=O)N(C)C)cc21	10 to 1000
COc1ccc2c(c1)C=C(C(=O)N(C)CC(=O)N1CCOCC1)Cn1c-2c(C2CCCCC2)c2ccc(C(=O)NS(=O)(=O)N(C)C)cc21	10 to 1000
COC(=O)c1ccc2c(C3CCCCC3)c3n(c2c1)CC(NC(=O)OC(C)(C)C)Cc1ccccc1-3 (stereo not shown)	10 to 1000
COc1ccc2c(c1)CC(C(=O)N(C)CC1CCCO1)Cn1c-2c(C2CCCCC2)c2ccc(C(=O)O)cc21 (stereo not shown)	10 to 1000
COC(=O)c1ccc2c(C3CCCCC3)c3n(c2c1)CC(C(=O)NCc1ncco1)Cc1cc(OC)ccc1-3 (stereo not shown)	10 to 1000
COc1ccc2c(c1)C=C(C(=O)N1CCN(CC(F)(F)F)CC1)Cn1c-2c(C2CCCCC2)c2ccc(C(=O)NS(=O)(=O)N3CCOCC3)cc21	10 to 1000
COc1ccc2c(c1)C=C(C(=O)N1CCN(C(=O)N(C)C)CC1)Cn1c-2c(C2CCCCC2)c2ccc(C(=O)NS(=O)(=O)N(C)C)cc21	10 to 1000
CN(C)C(=O)C1CCN(C(=O)C2=Cc3ccccc3-c3c(C4CCCCC4)c4ccc(C(=O)NS(=O)(=O)N(C)C)cc4n3C2)CC1	10 to 1000
COc1ccc2c(c1)C=C(C(=O)N(C)C1CCS(=O)(=O)C1)Cn1c-2c(C2CCCCC2)c2ccc(C(=O)NS(=O)(=O)N(C)C)cc21 (stereo not shown)	10 to 1000

same assay, conditions: Table 1b, read-out: IC50*

Structure (SMILES)	IC50 [nM]
COC(=O)c1ccc2c(C3CCCCC3)c3n(c2c1)CC(C(=O)NCC=O)=Cc1cc(OC)ccc1-3	20 to 1000
COC(=O)c1ccc2c(C3CCCCC3)c3n(c2c1)CC(C(=O)N1CCOC(CO)C1)=Cc1cc(F)ccc1-3 (stereo not shown)	20 to 1000
COc1ccc2c(c1)C=C(C(=O)N(C)[C@H](C)C(=O)N(C)C)Cn1c-2c(C2CCCCC2)c2ccc(C(=O)NS(=O)(=O)N(C)C)cc21	< 20
COc1ccc2c(c1)C=C(C(=O)N1C[C@H](CO)[C@@H](O)[C@H](O)C1)Cn1c-2c(C2CCCCC2)c2ccc(C(=O)NS(=O)(=O)N(C)C)cc21	< 20
